The text below walks through data of patent publication US10238738B2, “Methods of modulating immune system responses” (priority 2014, dated 2019).

What all share (assay type): cell-based, human
One test concerns NF-κB response to HBP. As to the kind of experiment: HBP internalization assay: NF-κB luciferase in 293T cells pre-treated with inhibitors. The conditions noted are these: 80 μM Dynasore or 10 μM cytochalasin D 1 hr prior to stimulation, FIG. 3b. The procedure:
(§1) 293T were maintained in DMEM supplemented with 10% FBS, 1% glutamax, and 1% penicillin streptomycin. Jurkat 1G5 cells contain a stably-integrated LTR-luciferase reporter gene (Aguilar-Cordova et al., 1994), and were maintained in RPMI supplemented with 10% FBS and 1% glutamax. THP-1 cells were maintained in RPMI supplemented with 10% FBS and 1% glutamax and differentiated to macrophages with 50 ng/ml PMA for 48 hr, followed by a 48 hr rest period prior to stimulation. To measure LTR-driven luciferase, 1G5 cells were lysed and luminescence determined using the Luciferase Assay kit (Promega) according to manufacturer's instructions. Results are expressed as fold change compared to untreated. 293T cells were transfected in 96 well plates with 90 ng ELAM firefly luciferase reporter plasmid (Chow et al., 1999) and 10 ng pRL-TK Renilla plasmid using TransiT LTI (Mirus). 18 hours later cells were treated for 6 hours and luciferase activity determined using the Dual-Glo Luciferase Assay System (Promega). Results are expressed as fold increase relative to transfected, mock treated cells following normalization to Renilla luciferase. […]

In another test the test system is THP-1 macrophages. As to the kind of experiment: Infection of THP-1 macrophages with serum-opsonized E. coli, IL-6 production. Particulars: 10 μg/ml cytochalasin D for 30 min; FIG. 6a. The procedure:
Neisseria strains were grown overnight on GC agar supplemented with IsovitaleX enrichment (BD Biosciences). E. coli and S. typhimurium were grown overnight on LB agar, S. pneumoniae was grown on Columbia blood agar containing 5% sheep blood, and H. influenzae, B. multivorans, L. monocytogenes, and S. aureus were grown on brain heart infusion (BHI) agar (BD Biosciences). Where culture supernatant was desired, overnight cultures were scraped into PBS, re-suspended in RPMI 1% Isovitalex at an OD600=0.2, grown for 6 hours and the spent medium filtered through a 0.22 μm filter. For heat-killed bacteria, overnight cultures were scraped into PBS and 1 OD600 unit was re-suspended in 100 μl PBS and heated to 65° C. for 1 hr, with the exception of B. multivorans which was heated to 85° C. Cell pellets were washed, re-suspended in 100 μl PBS, and 2 μl/well used as treatment. To generate lysates, cultures were treated as above and boiled for 15 minutes. […]
Relative expression was calculated using the 2^−ΔΔCT method following normalization of target gene abundance to GAPDH. Quantitative measurements of cytokines were performed using ELISA kits form R&D Systems (KC, IL-23, IFN-β) or BD Biosciences (IL-1β, IL-8, IL-6, IL-12p70, TNF-α). Nuclear extracts were prepared from Jurkat T cells and NF-κB subunit binding was determined using the TransAM® Transcription Factor ELISA (Active Motif). […]

Another test has as its system NF-κB. As to the kind of experiment: NF-κB luciferase reporter assay in 293T cells. The procedure: as §1, with “luciferase. Digitonin permeabilization assays were done as described previously (Girardin et al., 2003) with the following modifications: 1G5 cells were stimulated with purified HBP supernatants, or 10 μg/ml flagellin (Invivogen) for 20 minutes at 4° C. in the absence or presence of 2 μg/ml digitonin (Sigma).” for “luciferase.”
293T were maintained in DMEM supplemented with 10% FBS, 1% glutamax, and 1% penicillin streptomycin. […] To measure LTR-driven luciferase, 1G5 cells were lysed and luminescence determined using the Luciferase Assay kit (Promega) according to manufacturers instructions. Results are expressed as fold change compared to untreated. […] 18 hours later cells were treated for 6 hours and luciferase activity determined using the Dual-Glo Luciferase Assay System (Promega). Results are expressed as fold increase relative to transfected, mock treated cells following normalization to Renilla luciferase.

For test [1], the system named is HIV LTR-luciferase in Jurkat 1G5 cells. As to the kind of experiment: LTR-driven luciferase in Jurkat 1G5 cells with reversible digitonin permeabilization. Particulars: FIG. 3a. The method, then: as §1

In the case of `C=C1[C@@H](C)[C@H]2[C@H](Cc3ccccc3)NC(=O)[C@]23[C@H](OC(C)=O)/C=C/[C@@](C)(O)C(=O)[C@@H](C)C/C=C/[C@H]3[C@@H]1O` [cytochalasin D], the “Effect of inhibitor on NF-κB response to HBP” value in the test on NF-κB response to HBP is given as “not”. For the same compound, the “Effect of pre-treatment on the higher IL-6 production induced by HBP-synthesizing E. coli” value in the test with THP-1 macrophages was “abrogated the effect”. With `O=C(N/N=C/c1ccc(O)c(O)c1)c1cc2ccccc2cc1O` [Dynasore], the “Effect of inhibitor on NF-κB response to HBP” value with NF-κB response to HBP is “attenuated the NF-κB response to HBP”. In the case of `C[C@H](N)C(=O)N[C@H](CCC(=O)N[C@@H](CCC[C@@H](N)C(=O)O)C(=O)O)C(=O)O` [m-TriDAP, reference compound], in the test on NF-κB, the “NF-κB response of 293T cells to known Gram-negative PAMPs” value is listed as “unresponsive”. Turning to flagellin, the “Luciferase activity after delivery into the cytosol” value in test [1] is “remained constant”.
